# Assay results taken from patent US4877881A, “Process of preparing pyrazoles, isoxazoles and analogs thereof having activity as 5-lipoxygenase inhibitors” (Warner-Lambert Company, priority 1988, dated 1989).
# Key:
# [1] = biological target: T1, cyclooxygenase (Rattus norvegicus, UniProt Q63921); experiment: ARBC Whole Cell Cyclooxygenase Assay in RBL-1 cells (PGF2α RIA); type: cell-based; conditions: RBL-1 intact cell cyclooxygenase; A23187 5 μM
# T1 construct: RBL-1 intact cell cyclooxygenase IC50 values; endogenous in cells; host or cells: RBL-1 rat basophilic leukemia cells (American Type Culture Collection)
# T1 sequence (Q63921 27-602): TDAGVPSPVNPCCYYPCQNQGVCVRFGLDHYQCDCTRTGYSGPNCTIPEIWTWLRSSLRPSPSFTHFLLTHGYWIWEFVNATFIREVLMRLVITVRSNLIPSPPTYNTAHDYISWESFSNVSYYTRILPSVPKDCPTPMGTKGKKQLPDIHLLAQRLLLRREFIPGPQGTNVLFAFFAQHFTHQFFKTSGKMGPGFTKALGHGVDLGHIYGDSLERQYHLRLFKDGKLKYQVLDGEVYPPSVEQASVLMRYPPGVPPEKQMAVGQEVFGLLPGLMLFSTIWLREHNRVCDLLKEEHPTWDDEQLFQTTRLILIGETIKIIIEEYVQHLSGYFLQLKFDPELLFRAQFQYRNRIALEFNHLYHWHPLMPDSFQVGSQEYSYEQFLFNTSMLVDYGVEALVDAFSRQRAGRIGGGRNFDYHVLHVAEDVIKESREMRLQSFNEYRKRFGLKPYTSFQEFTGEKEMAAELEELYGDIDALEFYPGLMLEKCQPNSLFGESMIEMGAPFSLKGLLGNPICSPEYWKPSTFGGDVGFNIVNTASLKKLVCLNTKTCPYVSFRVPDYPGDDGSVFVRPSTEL
# Description: (§1) ARBL/ARBC Whole Cell 5-Lipoxygenase and Cyclooxygenase Assays
# (§2) The rat basophilic leukemia cell line (RBL-1) was obtained from the American Type Culture Collection (Rockville, Md.).
# (§3) Radioimmuno assay (RIA) kits of LTB4 and PGF2α were obtained from Amersham (Arlington Heights, Ill.) and Seragen (Boston, Mass.) respectively.
# (§4) All tissue culture media were obtained from GIBO (Gran Island, N.Y.).
# (§5) RBL-1 cells were grown in culture (suspension) in Eagle's minimum essential medium supplemented with 12% fetal bovine serum and 1:100 antibiotic-antimycotic mixture at 37° C. in an incubator supplied with air-5% carbon dioxide. Cells were harvested by centrifugation. They were washed with cold phosphate buffered saline pH 7.4 (PBS; NaCl, 7.1 g; Na2 HOP4, 1.15 g; KH2 PO4, 0.2 g; and KCl, 0.2 g/L). […] Calcium ionophore A23187 (5 μM) was added and cells were incubated for seven minutes at 37° C. The reaction was stopped by chilling the tubes in ice for ten minutes. Cells were separated by centrifugation and the supernatant was stored at -20°. Aliquots (100 μl) were analyzed for LTB4 and PGF2α using radioimmuno assay kits as provided by the supplier.
# [2] = biological target: T2, 5-lipoxygenase (Homo sapiens, UniProt P09917); experiment: 5-Lipoxygenase Assay Using Isolated Human Leukocytes (5LOA2), 5-HETE formation; type: cell-based; conditions: inhibition of 5-HETE formation, arachidonic acid 20 μM, A23187 10 μM, read-out: 5-LO(IC50 in μM)
# T2 construct: The formation of 5-HETE in human leukocytes is considered a measure of 5-lipoxygenase activity; endogenous in cells; host or cells: leukocytes isolated from fresh human blood
# T2 sequence (P09917 1-674): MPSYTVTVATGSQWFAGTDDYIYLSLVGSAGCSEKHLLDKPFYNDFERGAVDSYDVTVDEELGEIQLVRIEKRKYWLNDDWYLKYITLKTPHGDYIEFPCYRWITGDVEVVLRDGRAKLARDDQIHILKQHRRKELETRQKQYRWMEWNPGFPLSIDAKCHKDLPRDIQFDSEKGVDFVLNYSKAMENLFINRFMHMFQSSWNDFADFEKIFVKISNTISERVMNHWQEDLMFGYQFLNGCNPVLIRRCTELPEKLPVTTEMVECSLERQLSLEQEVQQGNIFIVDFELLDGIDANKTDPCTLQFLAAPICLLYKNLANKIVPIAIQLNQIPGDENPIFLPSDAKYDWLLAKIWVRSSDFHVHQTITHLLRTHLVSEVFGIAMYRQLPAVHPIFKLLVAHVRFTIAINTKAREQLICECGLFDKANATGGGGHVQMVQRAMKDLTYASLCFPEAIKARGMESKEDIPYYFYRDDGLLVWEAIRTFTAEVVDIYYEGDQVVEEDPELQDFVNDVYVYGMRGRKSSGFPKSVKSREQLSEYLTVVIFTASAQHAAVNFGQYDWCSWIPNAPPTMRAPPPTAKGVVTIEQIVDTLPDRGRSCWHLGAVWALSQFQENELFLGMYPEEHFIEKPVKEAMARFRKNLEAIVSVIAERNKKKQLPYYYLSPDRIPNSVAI
# Description: 5-Lipoxygenase Assay Using Isolated Human Leukocytes (5LOA2)
# The formation of 5-HETE in human leukocytes is considered a measure of 5-lipoxygenase activity. The protocol is described in the following.
# Fresh heparinized or EDTA treated human blood is mixed with 6% dextran-3% dextrose in isotonic saline in the ratio 0.25 ml dextran solution per 1.0 ml blood. After mixing the blood is allowed to sit at room temperature for about 90 minutes while the RBC's settle. During this period, the plasma is removed with a plastic pipette to nalgens tubes.
# The pellet, consisting of leukocytes and erythrocytes, is treated with 10 ml 0.87% ammonium chloride at room temperature for four minutes, lysing the red cells. At the end of four minutes the cells are diluted with a 2x volume of phosphate buffered saline, pH 7.4, and centrifuged for ten minutes. The cells are washed three times with the phosphate buffered saline. Any of the pelleted cell matter which is not easily resuspended is discarded during the washings--the material contains platelets (12-lipoxygenase activity).
# After washing, the cells are resuspended in phosphate buffered saline containing 1.0 mM 'calcium and 0.5 mM magnesium. After counting, the cells are diluted to 1.5-2.0×10^7 leukocytes per milliliter.
# To each polypropylene reaction tube is added 0.48 ml leukocytes in Ca-Mg phosphate buffered saline, pH 7.4; 1-5 μl test compound dissolved in DMSO and buffer; or DMSO for control tubes.
# The tubes preincubate at 37° C. for five minutes.
# The reaction is started by adding 20 μl of the following, 0.5 μl, 20 mM arachidonic acid--final concentration=20 μM; 1 μl, 5 mM calcium ionophore A23187--final concentration=10 μM; and 18.5 μl buffer.
# The reaction proceeds for five minutes, then is stopped by adding 0.5 ml, 0.5 mM ice-cold Tris buffer, pH 8.0. The tubes are chilled on ice for ten minutes and then extracted three times with a total of 3.5 ml ethyl acetate (3.0 ml removed).
# The tubes can be stored at this point. For extended storage, the tubes should be filled with nitrogen.
# The ethyl acetate is evaporated with a Sorvall Speed-Vac. The residue is dissolved in ethanol. The tubes can also be stored at this point at -20° C. under nitrogen.
# A portion of the ethanol solution is injected into the HPLC system for 5-HETE quantitation.
# Injections are made automatically with a Waters WISP 710B. The pump is a Spectra Physics SP8700. […] An RP C-18 column is used. The solvent system is isocratic; the solvent is 70% methanol and 30% 0.01M sodium acetate, pH 5.7, pumped at 1.0 ml/min. […] Using a 15 cm Alltech Nucleosil C-18 5 μM column provides for a sample turnaround time of about 16 minutes.
# [3] = biological target: T3, 5-lipoxygenase (Rattus norvegicus, UniProt P12527); experiment: ARBL Whole Cell 5-Lipoxygenase Assay in RBL-1 cells (LTB4 RIA); type: cell-based; conditions: RBL-1 intact cell 5-lipoxygenase; A23187 5 μM
# T3 construct: ARBL/ARBC Whole Cell 5-Lipoxygenase and Cyclooxygenase Assays; endogenous in cells; host or cells: RBL-1 rat basophilic leukemia cells (American Type Culture Collection)
# T3 sequence (P12527 1-673): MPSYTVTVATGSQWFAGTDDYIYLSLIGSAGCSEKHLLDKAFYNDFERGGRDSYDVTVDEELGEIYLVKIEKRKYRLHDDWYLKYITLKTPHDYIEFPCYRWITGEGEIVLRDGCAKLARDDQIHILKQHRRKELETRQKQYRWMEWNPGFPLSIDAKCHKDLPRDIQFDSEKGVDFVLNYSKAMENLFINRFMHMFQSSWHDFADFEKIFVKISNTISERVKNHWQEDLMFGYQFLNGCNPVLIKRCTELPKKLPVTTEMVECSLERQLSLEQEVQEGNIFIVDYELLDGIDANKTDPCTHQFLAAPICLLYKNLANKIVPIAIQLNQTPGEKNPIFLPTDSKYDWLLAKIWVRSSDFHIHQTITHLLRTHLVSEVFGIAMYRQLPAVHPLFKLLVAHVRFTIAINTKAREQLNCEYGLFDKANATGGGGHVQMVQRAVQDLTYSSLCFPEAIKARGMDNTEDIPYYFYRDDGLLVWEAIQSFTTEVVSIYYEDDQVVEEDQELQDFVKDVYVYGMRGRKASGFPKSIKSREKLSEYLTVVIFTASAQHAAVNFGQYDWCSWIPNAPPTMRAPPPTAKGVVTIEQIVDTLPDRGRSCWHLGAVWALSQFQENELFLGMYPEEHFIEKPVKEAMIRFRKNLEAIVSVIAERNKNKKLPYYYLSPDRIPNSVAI
# Description: as §1, §2, §3, §4, §5
# [4] = biological target: T4, cyclooxygenase (Bos taurus, UniProt O62664); experiment: Cyclooxygenase Enzyme Assay, bovine seminal vesicle (BSV), PGE2 formation; type: biochemical; conditions: bovine seminal vesicle powder; 100 μM arachidonic acid, 20 minutes
# T4 construct: The assay consists of incubating 2 mg bovine seminal vesicle powder; from tissue; host or cells: bovine seminal vesicle powder
# T4 sequence (O62664 25-600): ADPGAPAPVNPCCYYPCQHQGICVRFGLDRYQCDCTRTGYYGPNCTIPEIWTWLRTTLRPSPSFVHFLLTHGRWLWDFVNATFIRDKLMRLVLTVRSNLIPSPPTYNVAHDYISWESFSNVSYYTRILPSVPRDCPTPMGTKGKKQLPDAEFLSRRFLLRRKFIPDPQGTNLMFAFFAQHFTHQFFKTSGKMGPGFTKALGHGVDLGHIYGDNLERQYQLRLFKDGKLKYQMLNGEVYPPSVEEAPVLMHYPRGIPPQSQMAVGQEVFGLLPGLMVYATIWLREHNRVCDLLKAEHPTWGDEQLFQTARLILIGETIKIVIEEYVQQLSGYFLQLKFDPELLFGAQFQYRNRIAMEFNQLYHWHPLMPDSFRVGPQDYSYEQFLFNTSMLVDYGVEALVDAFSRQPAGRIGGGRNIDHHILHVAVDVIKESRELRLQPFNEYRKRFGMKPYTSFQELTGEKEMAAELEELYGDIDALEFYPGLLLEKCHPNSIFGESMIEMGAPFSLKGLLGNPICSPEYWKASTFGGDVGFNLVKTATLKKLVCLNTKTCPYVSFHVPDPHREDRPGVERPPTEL
# Description: Cyclooxygenase Enzyme Assay
# Additionally, inhibition of cyclooxygenase is considered a measure of relevance to the pathophysiology of the above noted diseases.
# The assay consists of incubating 2 mg bovine seminal vesicle powder with 2 mM epinephrine, 2.5 mM reduced glutathione, 100 μM arachidonic acid, and the test agent for 20 minutes. The reaction mixture is acidified and extracted with ethyl acetate (3×1.0 ml) and the pooled extract is evaporated to dryness using a Speed Vac Concentrator or under a stream of nitrogen. The residue was dissolved in ethanol.
Compound,IC50 [1] [µM],IC50 [2] [µM],IC50 [3] [µM],IC50 [4] [µM]
"CCOC(=O)c1cc(C=Cc2ccc(O)c(OC)c2)n[nH]1 [Example 10, Ethyl-3-[β-(3-methoxy-4-hydroxyphenyl)ethenyl]-1H-pyrazole-5-carboxylate]",11,18,5.2,–
"COc1ccc(C=Cc2cc(C)[nH]n2)cc1O [Example 8, 3-[β-(4'-Methoxy-3'-hydroxyphenyl)ethenyl]-5-methylpyrazole]",–,> 20,–,–
"CCc1cc(C=Cc2ccc(O)c(OC)c2)n[nH]1 [Example 9, 3-[β-(4'-Hydroxy-3'-methoxyphenyl)ethenyl]-5-ethylpyrazole]",–,7.5,–,56
"COc1cc(C=Cc2cc(-c3ccccc3)[nH]n2)ccc1O [Example 4, 3-[β-(4'-Hydroxy-3'-methoxyphenyl)ethenyl]-5-phenylpyrazole]",–,4.3,–,40

# Other lines, results leading:
IC50 [1] [µM],IC50 [2] [µM],IC50 [3] [µM],IC50 [4] [µM],Compound
–,15,–,44,"Oc1ccc(CCc2cc(CCc3ccc(O)cc3)[nH]n2)cc1 [Example 3, 3,5-Bis[β-(4'-hydroxyphenyl)ethyl]pyrazole]"
–,> 20,–,–,"COc1cc(CCc2cc(C)n[nH]2)ccc1O [Example 6, 3-[β-(4'-Hydroxy-3'-methoxyphenyl)ethyl]-5-methylpyrazole]"
–,29,–,31,"COc1cc(CCc2cc(CCc3ccc(O)c(OC)c3)on2)ccc1O [Example 12, 3,5-Bis[β-(4'-hydroxy-3'-methoxyphenyl)ethyl]isoxazole]"
–,53,–,67,"COc1cc(CCc2cc(CCc3ccc(O)c(OC)c3)[nH]n2)ccc1O [Example 2, 3,5-Bis[β-(4'-hydroxy-3'-methoxyphenyl)ethyl]pyrazole]"
